Measurements taken from ChEMBL document CHEMBL1201862, “PubChem BioAssay data set” (2004).
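Following 48 hours of exposure in 96-well plates, responses at five concentrations were used to interpolate endpoints linearly. GI50 marks 50% less growth.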 Active and inactive are the calls of the source. Rule as the data show it: active = GI50 up to about 1.1 µM and inactive = higher.

Tests used:
Test in all cases: growth of human tumour cells (NCI), 48 h
786-0 = test system: 786-0
SK-MEL-28 = test system: SK-MEL-28
T47D = test system: T47D
CCRF-CEM = test system: CCRF-CEM
OVCAR-4 = test system: OVCAR-4
HCC 2998 = test system: HCC 2998
UACC-62 = test system: UACC-62
OVCAR-3 = test system: OVCAR-3
NCI-H460 = test system: NCI-H460
M14 = test system: M14
HOP-62 = test system: HOP-62
SW-620 = test system: SW-620
NCI/ADR-RES = test system: NCI/ADR-RES
A549 = test system: A549
NCI-H522 = test system: NCI-H522
NCI-H23 = test system: NCI-H23
ACHN = test system: ACHN
RPMI-8226 = test system: RPMI-8226
SN12C = test system: SN12C

Measured: GI50

NC(N)=NCCC[C@H](N)C(=O)NCC(=O)N[C@@H](CC(=O)O)c1ncc(NC(=O)C(F)(F)F)o1
inactive: 786-0 > 25 µM | SK-MEL-28 > 25 µM | T47D > 25 µM | CCRF-CEM > 25 µM | OVCAR-4 > 25 µM | HCC 2998 17.8 µM | UACC-62 > 25 µM | OVCAR-3 > 25 µM | NCI-H460 > 25 µM | M14 > 25 µM | HOP-62 > 25 µM | SW-620 > 25 µM | NCI/ADR-RES > 25 µM | A549 > 25 µM | NCI-H522 > 25 µM | NCI-H23 > 25 µM | ACHN > 25 µM

CCOC(C[Se]CC(OCC)OCC)OCC
inactive: 786-0 > 100 µM | SK-MEL-28 49.4 µM | T47D > 100 µM | CCRF-CEM 33.4 µM | OVCAR-4 45.3 µM | HCC 2998 > 100 µM | UACC-62 28.4 µM | OVCAR-3 > 100 µM | NCI-H460 65.9 µM | M14 52.8 µM | SW-620 85.3 µM | NCI/ADR-RES 50.9 µM | A549 75.5 µM | RPMI-8226 > 100 µM | NCI-H522 > 100 µM | NCI-H23 34.2 µM | ACHN > 100 µM

N#CC1Cc2cc3c(cc21)OCO3 (stereo unspecified)
inactive: 786-0 > 100 µM | SK-MEL-28 > 100 µM | T47D > 100 µM | CCRF-CEM > 100 µM | OVCAR-4 > 100 µM | HCC 2998 > 100 µM | UACC-62 > 100 µM | OVCAR-3 > 100 µM | NCI-H460 > 100 µM | M14 > 100 µM | HOP-62 > 100 µM | SW-620 > 100 µM | NCI/ADR-RES > 100 µM | A549 > 100 µM | NCI-H23 > 100 µM | ACHN > 100 µM | SN12C > 100 µM

COP1(=S)OCC2CCC[C@@H]2O1 (stereo partly specified)
inactive: 786-0 > 100 µM | SK-MEL-28 > 100 µM | T47D > 100 µM | CCRF-CEM > 100 µM | OVCAR-4 > 100 µM | HCC 2998 > 100 µM | UACC-62 > 100 µM | OVCAR-3 > 100 µM | NCI-H460 > 100 µM | M14 > 100 µM | SW-620 > 100 µM | NCI/ADR-RES > 100 µM | A549 > 100 µM | RPMI-8226 > 100 µM | NCI-H522 > 100 µM | NCI-H23 > 100 µM | ACHN > 100 µM | SN12C > 100 µM

COc1cc2c(cc1OC)C(=O)/C(=C/c1ccc(O)cc1)CC2
inactive: 786-0 > 10 µM | SK-MEL-28 > 10 µM | T47D > 10 µM | CCRF-CEM 1.97 µM | OVCAR-4 > 10 µM | HCC 2998 > 10 µM | UACC-62 > 10 µM | OVCAR-3 > 10 µM | NCI-H460 > 10 µM | M14 > 10 µM | HOP-62 > 10 µM | SW-620 > 10 µM | NCI/ADR-RES > 10 µM | A549 > 10 µM | RPMI-8226 > 10 µM | NCI-H23 > 10 µM | ACHN > 10 µM | SN12C > 10 µM

O=c1[nH]nc(Cc2ccccc2)n1/N=C/c1c(O)ccc2ccccc12
inactive: 786-0 16.7 µM | T47D 20.2 µM | CCRF-CEM 43.6 µM | OVCAR-4 17.2 µM | HCC 2998 33.4 µM | UACC-62 29.2 µM | OVCAR-3 17.1 µM | SW-620 43.5 µM | NCI/ADR-RES 20.1 µM | A549 32 µM | RPMI-8226 19.8 µM | NCI-H522 16.6 µM | NCI-H23 27.2 µM | ACHN 22 µM | SN12C 41.1 µM

COc1ccc(/C=N/Nc2nc3ccccc3c(=O)n2-c2ccccc2)c(OCc2ccccc2)c1
inactive: 786-0 > 100 µM | SK-MEL-28 > 100 µM | T47D > 100 µM | CCRF-CEM > 100 µM | OVCAR-4 > 100 µM | HCC 2998 > 100 µM | UACC-62 70.6 µM | OVCAR-3 > 100 µM | NCI-H460 > 100 µM | M14 83.9 µM | HOP-62 > 100 µM | SW-620 > 100 µM | NCI/ADR-RES > 100 µM | A549 > 100 µM | NCI-H522 > 100 µM | NCI-H23 > 100 µM | ACHN > 100 µM | SN12C > 100 µM

Cn1c2ccccc2c(=O)c2cccc(C(=O)NC(CCCNC(=N)N)C(=O)O)c21 (stereo unspecified)
inactive: 786-0 > 100 µM | SK-MEL-28 > 100 µM | T47D > 100 µM | OVCAR-4 > 100 µM | HCC 2998 > 100 µM | UACC-62 > 100 µM | OVCAR-3 > 100 µM | NCI-H460 > 100 µM | M14 > 100 µM | HOP-62 > 100 µM | SW-620 > 100 µM | NCI/ADR-RES 26.1 µM | A549 > 100 µM | RPMI-8226 > 100 µM | NCI-H23 > 100 µM | ACHN > 100 µM | SN12C > 100 µM

CC1=COC(C)(C=C(C#N)C#N)CC1 (stereo unspecified)
inactive: 786-0 > 100 µM | SK-MEL-28 71 µM | T47D 98.4 µM | CCRF-CEM 35.3 µM | OVCAR-4 > 100 µM | HCC 2998 > 100 µM | UACC-62 57.7 µM | NCI-H460 > 100 µM | M14 78.5 µM | HOP-62 > 100 µM | SW-620 50.7 µM | NCI/ADR-RES 48.4 µM | A549 > 100 µM | RPMI-8226 38.5 µM | NCI-H23 61 µM | ACHN > 100 µM | SN12C 49.9 µM

Nc1ccc(COC(O)CN2CCCCC2)cc1[N+](=O)[O-] (stereo unspecified)
inactive: 786-0 > 100 µM | SK-MEL-28 > 100 µM | T47D > 100 µM | CCRF-CEM > 100 µM | OVCAR-4 > 100 µM | HCC 2998 > 100 µM | UACC-62 > 100 µM | OVCAR-3 > 100 µM | NCI-H460 > 100 µM | M14 > 100 µM | SW-620 > 100 µM | NCI/ADR-RES > 100 µM | A549 > 100 µM | RPMI-8226 > 100 µM | NCI-H522 > 100 µM | NCI-H23 > 100 µM | ACHN > 100 µM | SN12C > 100 µM

CC(=O)Nc1c(C)cc2c(nc3n2CCC3O)c1[N+](=O)[O-] (stereo unspecified)
inactive: 786-0 > 100 µM | SK-MEL-28 > 100 µM | T47D > 100 µM | CCRF-CEM > 100 µM | OVCAR-4 > 100 µM | HCC 2998 > 100 µM | UACC-62 > 100 µM | OVCAR-3 > 100 µM | NCI-H460 > 100 µM | M14 > 100 µM | SW-620 > 100 µM | NCI/ADR-RES > 100 µM | A549 > 100 µM | RPMI-8226 > 100 µM | NCI-H522 > 100 µM | NCI-H23 > 100 µM | ACHN > 100 µM | SN12C > 100 µM

NC1=NC(=O)C2(NN1)c1ccccc1-c1ccccc12
inactive: 786-0 > 10 µM | SK-MEL-28 > 10 µM | T47D 2.42 µM | CCRF-CEM > 10 µM | HCC 2998 > 10 µM | OVCAR-3 > 10 µM | NCI-H460 > 10 µM | M14 > 10 µM | HOP-62 > 10 µM | SW-620 > 10 µM | NCI/ADR-RES 7.41 µM | A549 > 10 µM | RPMI-8226 > 10 µM | NCI-H23 > 10 µM | ACHN 6.17 µM | SN12C > 10 µM

Cc1oc2c(c1C)S(=O)(=O)C(C#N)C(c1ccccc1)N2 (stereo unspecified)
inactive: 786-0 40.9 µM | SK-MEL-28 > 100 µM | T47D 62.5 µM | CCRF-CEM 20.4 µM | OVCAR-4 29.6 µM | HCC 2998 53.8 µM | UACC-62 41.4 µM | OVCAR-3 65.6 µM | NCI-H460 41 µM | M14 40.4 µM | HOP-62 > 100 µM | SW-620 > 100 µM | NCI/ADR-RES 30.8 µM | A549 44.7 µM | NCI-H522 16.9 µM | NCI-H23 69.5 µM | ACHN > 100 µM | SN12C 49.8 µM

CO/C(N)=C(C#N)/N=C/c1ccco1
inactive: 786-0 > 100 µM | SK-MEL-28 > 100 µM | T47D > 100 µM | CCRF-CEM 67.8 µM | OVCAR-4 > 100 µM | HCC 2998 > 100 µM | UACC-62 > 100 µM | OVCAR-3 > 100 µM | M14 > 100 µM | HOP-62 > 100 µM | SW-620 > 100 µM | NCI/ADR-RES > 100 µM | A549 > 100 µM | RPMI-8226 > 100 µM | NCI-H522 > 100 µM | NCI-H23 > 100 µM | ACHN > 100 µM | SN12C > 100 µM

O=P(O)(CN1CCN(CP(=O)(O)c2ccccc2)CCN(CP(=O)(O)c2ccccc2)CC1)c1ccccc1
inactive: 786-0 78 µM | SK-MEL-28 > 100 µM | T47D > 100 µM | CCRF-CEM > 100 µM | OVCAR-4 32.1 µM | HCC 2998 78.2 µM | UACC-62 > 10 µM | OVCAR-3 56.6 µM | NCI-H460 36 µM | HOP-62 > 100 µM | SW-620 45.6 µM | NCI/ADR-RES > 100 µM | A549 47.6 µM | RPMI-8226 51.4 µM | NCI-H23 > 100 µM | ACHN > 100 µM

COc1ccc(/C=C2\CCS(=O)(=O)c3ccccc3C2=O)cc1OC
inactive: 786-0 28.1 µM | SK-MEL-28 53.1 µM | T47D 32.3 µM | CCRF-CEM 28.9 µM | OVCAR-4 17.9 µM | HCC 2998 14.9 µM | UACC-62 16.7 µM | OVCAR-3 22.7 µM | NCI-H460 18.3 µM | M14 38.9 µM | HOP-62 38.5 µM | SW-620 38 µM | NCI/ADR-RES 28.8 µM | A549 > 100 µM | RPMI-8226 35.2 µM | NCI-H23 28.8 µM | ACHN 27.5 µM | SN12C 28.2 µM
